From ChEMBL document CHEMBL4184189, “Discovery of orally efficacious RORγt inverse agonists, part 1: Identification of novel phenylglycinamides as lead scaffolds” (Bioorg Med Chem, 2018) come the findings set out here.

Data set [1] in a line: AUC (0 to 24 hrs) in mouse plasma at 100 mg/kg, po. Type of data set: ADME, organism-based. More on the design: dose 100 mg/kg, time < 24 hr, route oral.
Data set [2] can be described thus: Drug uptake in po dosed Balb/c mouse ear. Type of data set: ADME, organism-based. The following applies: in vivo.
A short description of data set [3]: Cmax in mouse plasma at 100 mg/kg, po. The arrangement: dose 100 mg/kg, route oral. Type of data set: ADME, organism-based.
Data set [4] can be described thus: Drug uptake in Balb/c mouse plasma at 10 to 100 mg/kg, po. Type of data set: ADME, organism-based. Conditions: in vivo; call rule not given here.
Data set [5] has as its system Mus musculus. Kind of data set: In vivo inverse agonist activity at RORgammat in Balb/c mouse assessed as inhibition of IL-23-induced IL-17a gene expression at 100 mg/kg, po administered 30 mins before and 8 hrs after IL-23 injection in ears intradermally measured after 24 hrs by qRT-PCR analysis relative to control. Type of data set: functional. On the technique in general: In qPCR the cycle at which signal appears reflects the starting amount.

The nature of data set [6]: Tmax in mouse plasma at 100 mg/kg, po. Type of data set: ADME, organism-based.
Data set [7] relates to Mus musculus. Kind of data set: (§1) AUC (0 to 8 hrs) in mouse at 1 mg/kg, po administered as cassette dose. More on the design: time < 8 hr, dose 1 mg/kg, route oral. The following applies: in vivo, 8 h. Type of data set: ADME, organism-based.
The nature of data set [8]: Drug uptake in po dosed Balb/c mouse ear after 8 hrs. Type of data set: ADME, organism-based. Conditions: in vivo.
For data set [9], the species on record is Homo sapiens. Briefly: Selectivity ratio of IC50 for RORbeta in human Jurkat cells to IC50 for RORgammat in human Jurkat cells. Type of data set: cell-based.
Data set [10] has as its target T1, Nuclear receptor ROR-gamma (Homo sapiens, UniProt P51449).
T1 sequence (P51449 whole entry): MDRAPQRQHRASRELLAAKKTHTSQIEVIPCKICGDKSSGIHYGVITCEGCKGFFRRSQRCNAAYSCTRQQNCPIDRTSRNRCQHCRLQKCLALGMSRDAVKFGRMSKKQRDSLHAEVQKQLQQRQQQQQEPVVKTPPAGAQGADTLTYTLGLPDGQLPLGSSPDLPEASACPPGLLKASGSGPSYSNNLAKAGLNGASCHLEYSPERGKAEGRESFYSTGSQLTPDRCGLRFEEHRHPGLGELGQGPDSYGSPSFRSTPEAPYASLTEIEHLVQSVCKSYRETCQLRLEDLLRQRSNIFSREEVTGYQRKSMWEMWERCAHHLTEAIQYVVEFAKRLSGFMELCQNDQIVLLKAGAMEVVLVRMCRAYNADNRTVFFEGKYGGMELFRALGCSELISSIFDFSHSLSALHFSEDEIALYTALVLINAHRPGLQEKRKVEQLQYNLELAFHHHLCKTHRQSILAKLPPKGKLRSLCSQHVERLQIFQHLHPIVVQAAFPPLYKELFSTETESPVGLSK
Briefly: Inverse agonist activity at RORgammat in human Jurkat cells assessed as inhibition of transcriptional activity after overnight incubation by human IL-17 ROR response element driven-bright-glo luciferase reporter gene assay. Type of data set: cell-based. (Reporter assays use an easily measured gene product as a stand-in for the process of interest.)

Data set [11] has as its target T2, Nuclear receptor ROR-gamma (Homo sapiens) (UniProt P51449).
T2 sequence (whole entry): T1 sequence (P51449 whole entry)
Kind of data set: Displacement of 25-[3H2]hydroxycholesterol from GST-tagged RORgammat (unknown origin) at 10 uM.

Data set [12] has as its target T1, Nuclear receptor ROR-gamma. Kind of data set: Displacement of BODIPY-cholesterol from human His-tagged RORgammat after 20 mins by TR-FRET assay.
The species entered for data set [13] is Homo sapiens. Briefly: Selectivity ratio of IC50 for RORalpha in human Jurkat cells to IC50 for RORgammat in human Jurkat cells. Type of data set: cell-based.
A short description of data set [14]: as §1. The following applies: in vivo. Type of data set: ADME, organism-based. The arrangement: time < 8 hr, dose 1 mg/kg, route oral.

As for `COc1ccc([C@H](C(=O)Nc2cc(F)c([Si](C)(C)C)c(F)c2)N(C)C(=O)c2cc(O)no2)cc1`, the AUC(0-t) at 24 h in data set [1] worked out at 47400 ng·h/mL. The Drug uptake entry in data set [2] is “Dose-dependent effect and Tde”; in data set [4] it was “Active”; in [8], “Active”. For the same compound, the Cmax in [3] stood at 9120 ng/mL. The inhibition in vivo at 100 mg/kg in the data set on Mus musculus [5] stood at 71%. Besides, the Tmax in data set [6] came out at 1 h. In the data set on Mus musculus [7], this compound yielded an AUC of 370 ng·h/mL.

Turning to `COc1ccc(C(C(=O)Nc2ccc(C(C)C)cc2)N(C)C(=O)c2ccc(O)nc2)cc1` (racemic), the Ratio IC50 in the data set filed under Homo sapiens [9] and in the data set filed under Homo sapiens [13] was > 15 in each case. Besides, the results for the half-inhibitory concentration (IC50) in data set [10] and in data set [12] were 1.6 µM and 0.2 µM, respectively. Also, the inhibition in data set [11] was 93%.

In turn, `COc1ccc(C(C(=O)Nc2ccc([Si](C)(C)C)cc2)N(C)C(=O)c2ccc(O)nc2)cc1` (racemic) had an exposure AUC(0-t) at 8 h in data set [14] of 86 ng·h/mL.

Turning to `COc1ccc(C(CC(=O)Nc2ccc(C(C)(C)C)cc2)N(C)C(=O)c2ccc(=O)[nH]c2)cc1` (racemic), the 50% inhibitory concentration (IC50) in [10] was > 30 µM; in data set [12], > 10 µM.

Regarding `COc1ccc(CC(C(=O)Nc2ccc(C(C)(C)C)cc2)N(C)C(=O)c2ccc(=O)[nH]c2)cc1` (racemic), the IC50 in data set [10] is > 30 µM; in data set [12], > 10 µM.

In turn, `COc1ccc(C(C(=O)Nc2cc(F)c([Si](C)(C)C)c(F)c2)N(C)C(=O)c2cc(O)no2)cc1` (racemic) had an AUC(0-t) at 8 h in [14] of 1510 ng·h/mL.

In the case of `COc1ccc(C(C(=O)Nc2ccc([Si](C)(C)C)cc2)N(C)C(=O)c2cc(O)no2)cc1` (racemic), the AUC(0-t) at 8 h in [14] is 1590 ng·h/mL.

For `COc1ccc(C(C(=O)N(C)c2ccc(C(C)(C)C)cc2)N(C)C(=O)c2ccc(=O)[nH]c2)cc1` (racemic), the values for the IC50 in data set [10] and in [12] were > 30 µM and > 10 µM, respectively.

Usually AUC(0-t) stands for exposure summed from dosing to a finite time, without extrapolation to infinity. Read a high AUC(0-t) as more exposure. Broadly, the Cmax is the highest concentration seen after dosing. As usually defined, the inhibition in vivo is the percentage by which the read-out fell short of the control. The term Tmax denotes the time at which the peak concentration occurs. By AUC is commonly meant the area under the concentration-time curve, a measure of exposure. The term IC50 denotes the concentration that gives 50% inhibition. As a reminder, the inhibition is the share of the control response that was lost under treatment. Read a low inhibition as a weak effect.
